Results on 15 molecules are retold here after patent US11292801B2, “Calpain modulators and therapeutic uses thereof” (Blade Therapeutics, Inc., priority 2016, dated 2022).

One test has as its target T1, Human Calpain 1/NS1 (Homo sapiens, UniProt P07384).
T1 sequence (P07384 1-714): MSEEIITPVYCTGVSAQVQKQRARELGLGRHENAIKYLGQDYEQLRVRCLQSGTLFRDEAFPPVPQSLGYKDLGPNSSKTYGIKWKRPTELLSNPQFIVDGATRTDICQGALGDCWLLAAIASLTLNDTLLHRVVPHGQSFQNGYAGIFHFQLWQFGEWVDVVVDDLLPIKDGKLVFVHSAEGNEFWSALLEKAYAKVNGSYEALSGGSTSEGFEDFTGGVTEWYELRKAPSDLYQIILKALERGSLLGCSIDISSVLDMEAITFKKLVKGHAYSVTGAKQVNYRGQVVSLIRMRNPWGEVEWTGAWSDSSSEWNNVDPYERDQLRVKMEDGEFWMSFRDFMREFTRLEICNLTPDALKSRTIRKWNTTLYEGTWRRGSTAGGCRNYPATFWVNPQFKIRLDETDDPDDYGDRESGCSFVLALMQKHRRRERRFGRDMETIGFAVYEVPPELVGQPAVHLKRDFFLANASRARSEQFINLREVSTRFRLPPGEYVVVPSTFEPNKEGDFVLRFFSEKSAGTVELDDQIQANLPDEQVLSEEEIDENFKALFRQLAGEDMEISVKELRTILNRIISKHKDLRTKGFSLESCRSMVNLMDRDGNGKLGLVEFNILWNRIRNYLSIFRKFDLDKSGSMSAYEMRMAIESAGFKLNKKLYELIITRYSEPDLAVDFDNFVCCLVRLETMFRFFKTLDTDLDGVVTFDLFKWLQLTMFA
T1 sequence (P04632 1-268 partner): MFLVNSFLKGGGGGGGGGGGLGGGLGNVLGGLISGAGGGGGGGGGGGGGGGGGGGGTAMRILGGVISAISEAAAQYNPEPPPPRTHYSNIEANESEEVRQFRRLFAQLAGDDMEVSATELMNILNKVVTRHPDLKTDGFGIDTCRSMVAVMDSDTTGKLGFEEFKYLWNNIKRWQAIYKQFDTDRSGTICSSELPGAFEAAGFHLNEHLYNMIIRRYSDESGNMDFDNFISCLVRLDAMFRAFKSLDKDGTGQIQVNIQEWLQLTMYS
The test can be described thus: Biochemical inhibition of calpain 1, continuous fluorescence (FRET substrate) assay. The note with it: mean, read-out: Human Calpain 1/NS1 IC50 (nM)_MEAN. The method, boiled down: (§1)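 IC50 values come from 4-parameter fits of progress-curve rates (1-5 min slopes) against log inhibitor concentration. Calpain and inhibitor premixed at ambient 25C in Tris pH ~7.5/NaCl/DTT buffer, then CaCl2 and FRET substrate added to activate; 5-FAM fluorescence (ex 490/em 520) followed 10 min.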

For another test, the target named is T2, Human Calpain 9/NS1 (Homo sapiens, UniProt O14815).
T2 sequence (O14815 1-690): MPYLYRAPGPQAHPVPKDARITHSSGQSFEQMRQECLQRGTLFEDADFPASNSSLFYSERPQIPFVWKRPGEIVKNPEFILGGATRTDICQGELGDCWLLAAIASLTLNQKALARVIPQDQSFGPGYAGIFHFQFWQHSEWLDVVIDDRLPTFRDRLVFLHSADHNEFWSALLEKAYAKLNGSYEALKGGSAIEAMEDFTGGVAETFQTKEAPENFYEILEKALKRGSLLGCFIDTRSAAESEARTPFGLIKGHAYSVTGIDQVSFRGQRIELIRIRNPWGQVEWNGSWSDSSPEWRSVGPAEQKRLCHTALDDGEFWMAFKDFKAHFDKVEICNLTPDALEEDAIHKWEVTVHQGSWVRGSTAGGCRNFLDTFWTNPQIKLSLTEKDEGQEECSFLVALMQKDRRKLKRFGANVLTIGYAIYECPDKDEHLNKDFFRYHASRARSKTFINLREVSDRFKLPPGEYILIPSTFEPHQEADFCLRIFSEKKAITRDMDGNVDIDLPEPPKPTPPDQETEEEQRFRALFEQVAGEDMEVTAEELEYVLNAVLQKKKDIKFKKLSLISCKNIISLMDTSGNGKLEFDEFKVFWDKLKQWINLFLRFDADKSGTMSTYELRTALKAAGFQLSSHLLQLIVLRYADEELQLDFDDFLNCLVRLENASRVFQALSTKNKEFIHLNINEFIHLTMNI
T2 sequence (P04632 1-268 partner): T1 sequence (P04632 1-268 partner)
The test can be described thus: Biochemical inhibition of calpain 9, continuous fluorescence (FRET substrate) assay. To be noted: mean, read-out: Human Calpain 9/NS1 IC50 (nM)_MEAN. The method, boiled down:
as §1

In another test the target is T3, Human Calpain 2/NS1 (Homo sapiens, UniProt P17655).
T3 sequence (P17655 1-700): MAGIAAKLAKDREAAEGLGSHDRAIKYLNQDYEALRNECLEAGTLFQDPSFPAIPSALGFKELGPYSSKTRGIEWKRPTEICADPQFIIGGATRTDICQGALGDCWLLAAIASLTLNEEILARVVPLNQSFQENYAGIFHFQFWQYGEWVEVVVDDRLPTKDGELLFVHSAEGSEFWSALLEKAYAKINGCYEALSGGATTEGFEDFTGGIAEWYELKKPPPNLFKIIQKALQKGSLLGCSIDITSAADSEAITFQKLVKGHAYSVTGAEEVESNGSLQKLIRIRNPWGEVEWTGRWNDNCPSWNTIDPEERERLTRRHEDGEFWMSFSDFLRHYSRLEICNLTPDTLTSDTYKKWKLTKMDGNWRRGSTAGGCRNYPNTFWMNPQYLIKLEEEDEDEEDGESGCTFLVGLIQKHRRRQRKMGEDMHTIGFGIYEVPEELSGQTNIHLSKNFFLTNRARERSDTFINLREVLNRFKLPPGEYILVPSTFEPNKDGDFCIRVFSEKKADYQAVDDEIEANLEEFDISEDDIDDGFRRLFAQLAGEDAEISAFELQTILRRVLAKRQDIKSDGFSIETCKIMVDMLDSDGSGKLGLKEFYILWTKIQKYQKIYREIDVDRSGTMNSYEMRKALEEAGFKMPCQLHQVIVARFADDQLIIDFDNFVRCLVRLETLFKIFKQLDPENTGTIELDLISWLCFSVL
T3 sequence (P04632 1-268 partner): T1 sequence (P04632 1-268 partner)
The test can be described thus: Biochemical inhibition of calpain 2, continuous fluorescence (FRET substrate) assay. The note with it: mean, read-out: Human Calpain 2/NS1 IC50 (nM)_MEAN. The method, boiled down:
as §1

Turning to `CCCCNC(=O)C(=O)[C@@H]1CCCCOCCOCc2ccccc2C(=O)N1` [Compound 53, (S)—N-butyl-2-oxo-2-(12-oxo-1,3,4,6,7,8,9,10,11,12-decahydrobenzo[f][1,4]dioxa[9]azacyclotetradecin-10-yl)acetamide], the IC50 at Human Calpain 1/NS1 was above 10000 nM; at Human Calpain 9/NS1, below 3000 nM; on Human Calpain 2/NS1, above 10000 nM.

On to `O=C[C@@H]1C/C=C\COCCOCc2ccccc2C(=O)N1` [Compound 1, (S,Z)-12-Oxo-1,3,4,6,9,10,11,12-octahydrobenzo[f][1,4]dioxa[9]azacyclo-tetradecine-10-carbaldehyde], for which the IC50 is above 10000 nM at Human Calpain 1/NS1, below 3000 nM on Human Calpain 9/NS1 and below 3000 nM at Human Calpain 2/NS1.

On to `NC(=O)C(=O)[C@@H]1CCCCCCOc2ccnc(c2)-c2ccccc2C(=O)N1` [Compound 132, (S)-2-oxo-2-(3-oxo-12-oxa-4-aza-1(2,4)-pyridina-2(1,2)-benzenacyclododecaphane-5-yl)acetamide], for which the IC50 at Human Calpain 1/NS1, on Human Calpain 9/NS1 and on Human Calpain 2/NS1 was below 3000 nM in each case.

Consider `O=C(NC1CC1)C(=O)[C@@H]1Cc2ccc(cc2)CCCCc2cccc(c2)-c2ccn(n2)-c2ncccc2C(=O)N1` [Compound 74, N-cyclopropyl-2-oxo-2-((10S,E)-12-oxo-2′H-11-aza-1(2,3)-pyridina-2(1,3)-pyrazola-3(1,3),8(1,4)-dibenzenacyclododecaphane-10-yl)acetamide], for which the IC50 at Human Calpain 1/NS1, at Human Calpain 9/NS1 and at Human Calpain 2/NS1 was below 3000 nM in each case.

In the case of `CCOC(=O)CNC(=O)C(=O)[C@@H]1CCCCOCCOCc2ccccc2C(=O)N1` [Compound 56, Ethyl (S)-(2-oxo-2-(12-oxo-1,3,4,6,7,8,9,10,11,12-decahydrobenzo[f][1,4]dioxa[9]azacyclotetradecin-10-yl)acetyl)glycinate], the IC50 at Human Calpain 1/NS1 was above 10000 nM; on Human Calpain 9/NS1 it was below 3000 nM; on Human Calpain 2/NS1, below 3000 nM.

Take `O=C(NCc1ccc(F)cc1)C(=O)C1CCCCOCCOCc2ccccc2C(=O)N1` (stereo not drawn) [Compound 98, N-(4-fluorobenzyl)-2-oxo-2-(12-oxo-1,3,4,6,7,8,9,10,11,12-decahydrobenzo[f][1,4]dioxa[9]azacyclotetradecin-10-yl)acetamide]: the IC50 was above 10000 nM on Human Calpain 1/NS1, below 3000 nM on Human Calpain 9/NS1 and below 3000 nM on Human Calpain 2/NS1.

Turning to `O=C[C@@H]1CC=CCCCCCc2ccccc2C(=O)N1` [Compound 14, (S)-1-Oxo-2,3,4,7,8,9,10,11-octahydro-1h-benzo[c][1]aza-cyclotridecine-3-carbaldehyde], the values for the IC50 on Human Calpain 1/NS1, at Human Calpain 9/NS1 and at Human Calpain 2/NS1 were 3000 to 10000 nM, below 3000 nM and below 3000 nM, respectively.

For `O=C[C@@H]1CCCCOCCOc2ccccc2C(=O)N1` [Compound 19, (S)-11-Oxo-2,3,6,7,8,9,10,11-octahydro-5h-benzo[e][1,4]dioxa[8]azacyclotridecine-9-carbaldehyde], the IC50 on Human Calpain 1/NS1 is above 10000 nM; on Human Calpain 9/NS1, 3000 to 10000 nM; at Human Calpain 2/NS1 it was 3000 to 10000 nM.

Take `CCOC(=O)CCNC(=O)C(=O)[C@@H]1CCCCOCCOCc2ccccc2C(=O)N1` [Compound 55, Ethyl (S)-3-(2-oxo-2-(12-oxo-1,3,4,6,7,8,9,10,11,12-decahydrobenzo[f][1,4]dioxa[9]azacyclotetradecin-10-yl)acetamido)propanoate]: the results for the IC50 on Human Calpain 1/NS1, at Human Calpain 9/NS1 and at Human Calpain 2/NS1 were above 10000 nM, 3000 to 10000 nM and 3000 to 10000 nM, respectively.

In the case of `O=C(NCCc1ccccn1)C(=O)C1CCCCOCCOCc2ccccc2C(=O)N1` (stereo not drawn) [Compound 82, 2-Oxo-2-(12-oxo-1,3,4,6,7,8,9,10,11,12-decahydrobenzo[f][1,4]dioxa[9]aza-cyclotetradecin-10-yl)-N-(2-(pyridin-2-yl)ethyl)acetamide], the results for the IC50 on Human Calpain 1/NS1, at Human Calpain 9/NS1 and on Human Calpain 2/NS1 were above 10000 nM, 3000 to 10000 nM and above 10000 nM, respectively.

Regarding `COc1ccc(CCNC(=O)C(=O)C2CCCCOCCOCc3ccccc3C(=O)N2)cc1OC` (stereo not drawn) [Compound 123, N-(3,4-dimethoxyphenethyl)-2-oxo-2-(12-oxo-1,3,4,6,7,8,9,10,11,12-decahydrobenzo[f][1,4]dioxa[9]azacyclotetradecin-10-yl)acetamide], the IC50 at Human Calpain 1/NS1 was above 10000 nM; at Human Calpain 9/NS1, 3000 to 10000 nM; at Human Calpain 2/NS1 it was above 10000 nM.

With `O=C(NCCc1cccnc1)C(=O)C1CCCCOCCOCc2ccccc2C(=O)N1` (stereo not drawn) [Compound 101, 2-Oxo-2-(12-oxo-1,3,4,6,7,8,9,10,11,12-decahydrobenzo[f][1,4]dioxa[9]aza-cyclotetradecin-10-yl)-N-(2-(pyridin-3-yl)ethyl)acetamide], the IC50 at Human Calpain 1/NS1 is above 10000 nM; on Human Calpain 9/NS1, 3000 to 10000 nM; on Human Calpain 2/NS1, above 10000 nM.

Regarding `C/C1=C\C[C@@H](C(=O)C(N)=O)NC(=O)c2cc(C)nn2-c2cccc(c2)OCC1` [Compound 145, (S,E)-2-(1^3,6-dimethyl-11-oxo-1H-3-oxa-10-aza-1(1,5)-pyrazola-2(1,3)-benzenacycloundecaphan-6-en-9-yl)-2-oxoacetamide], the IC50 on Human Calpain 1/NS1, at Human Calpain 9/NS1 and at Human Calpain 2/NS1 was below 3000 nM each time.

As for `Cc1ccc(Cl)cc1CNC(=O)C(=O)C1CCCCOCCOCc2ccccc2C(=O)N1` (stereo not drawn) [Compound 108, N-(5-chloro-2-methylbenzyl)-2-oxo-2-(12-oxo-1,3,4,6,7,8,9,10,11,12-decahydrobenzo[f][1,4]dioxa[9]azacyclotetradecin-10-yl)acetamide], the figures for the IC50 on Human Calpain 1/NS1, at Human Calpain 9/NS1 and at Human Calpain 2/NS1 were above 10000 nM, below 3000 nM and 3000 to 10000 nM, respectively.

Consider `C#CCNC(=O)C(=O)C1CCCCOCCOCc2ccccc2C(=O)N1` (stereo not drawn) [Compound 85, 2-Oxo-2-(12-oxo-1,3,4,6,7,8,9,10,11,12-decahydrobenzo[f][1,4]dioxa[9]aza-cyclotetradecin-10-yl)-N-(prop-2-yn-1-yl)acetamide], for which the IC50 on Human Calpain 1/NS1 was above 10000 nM; on Human Calpain 9/NS1, 3000 to 10000 nM; at Human Calpain 2/NS1, above 10000 nM.
